Test results published in patent US20220009920A1 (GB005, Inc., priority 2020, published 2022).

Tests used:
Experiment in all cases: Large panel kinase profiling
Format in all cases: biochemical
Conditions in all cases: 1 μM test article, 1 mM ATP
[1] = molecular target: T1, RPS6KA4/MSK2 (Homo sapiens, UniProt O75676)
T1 construct: AssayQuant Technologies, Inc. (contract assay)
Procedure, shortened: (§1)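 Profiling across the panel relied on the PhosphoSens CSox-Sensor format. A compound concentration of 1 μM and an ATP level of 1 mM were used throughout.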

[2] = molecular target: PIM2 (Homo sapiens, UniProt Q9P1W9)
Procedure, shortened: as §1

[3] = molecular target: PRKCB2/PKCB2 (Homo sapiens, UniProt P05771)
Procedure, shortened: as §1

[4] = molecular target: FER (Homo sapiens, UniProt P16591)
Procedure, shortened: as §1

[5] = molecular target: T2, NEK6 (Homo sapiens, UniProt Q9HC98)
T2 construct: AssayQuant Technologies, Inc. (assay service)
Procedure, shortened: as §1

[6] = molecular target: EPHA7 (Homo sapiens, UniProt Q15375)
Procedure, shortened: as §1

[7] = molecular target: T3, CHUK/IKKA (Homo sapiens, UniProt O15111)
T3 construct: AssayQuant Technologies, Inc. (ran the panel)
T3 sequence (O15111 1-745): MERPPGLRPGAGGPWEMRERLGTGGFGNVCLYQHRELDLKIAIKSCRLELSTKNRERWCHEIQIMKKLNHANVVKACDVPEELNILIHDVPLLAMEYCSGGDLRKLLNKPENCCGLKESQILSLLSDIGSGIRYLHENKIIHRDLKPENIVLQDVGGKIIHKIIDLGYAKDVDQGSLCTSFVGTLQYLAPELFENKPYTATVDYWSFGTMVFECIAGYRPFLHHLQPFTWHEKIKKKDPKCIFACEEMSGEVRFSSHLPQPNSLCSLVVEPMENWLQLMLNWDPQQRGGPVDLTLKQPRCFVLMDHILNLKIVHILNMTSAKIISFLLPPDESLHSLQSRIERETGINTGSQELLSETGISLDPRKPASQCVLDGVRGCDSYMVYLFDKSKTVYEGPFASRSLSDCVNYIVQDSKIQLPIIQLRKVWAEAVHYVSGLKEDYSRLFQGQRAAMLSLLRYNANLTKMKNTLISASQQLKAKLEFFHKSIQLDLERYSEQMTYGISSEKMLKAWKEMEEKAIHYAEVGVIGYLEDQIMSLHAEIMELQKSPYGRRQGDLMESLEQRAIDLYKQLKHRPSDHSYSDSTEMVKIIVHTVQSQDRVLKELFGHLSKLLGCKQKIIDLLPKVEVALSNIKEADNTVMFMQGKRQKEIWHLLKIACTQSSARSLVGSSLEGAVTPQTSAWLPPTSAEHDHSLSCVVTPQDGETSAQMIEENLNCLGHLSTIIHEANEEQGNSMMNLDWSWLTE
Procedure, shortened: as §1

[8] = molecular target: PRKDC/DNA-PK (Homo sapiens, UniProt P78527)
Procedure, shortened: as §1

[9] = molecular target: T4, CHEK2/CHK2 (Homo sapiens, UniProt O96017)
T4 construct: AssayQuant Technologies, Inc. (ran the panel)
Procedure, shortened: as §1

[10] = molecular target: T5, NEK9 (Homo sapiens, UniProt Q8TD19)
T5 construct: AssayQuant Technologies, Inc. (assay service)
T5 sequence (Q8TD19 1-979): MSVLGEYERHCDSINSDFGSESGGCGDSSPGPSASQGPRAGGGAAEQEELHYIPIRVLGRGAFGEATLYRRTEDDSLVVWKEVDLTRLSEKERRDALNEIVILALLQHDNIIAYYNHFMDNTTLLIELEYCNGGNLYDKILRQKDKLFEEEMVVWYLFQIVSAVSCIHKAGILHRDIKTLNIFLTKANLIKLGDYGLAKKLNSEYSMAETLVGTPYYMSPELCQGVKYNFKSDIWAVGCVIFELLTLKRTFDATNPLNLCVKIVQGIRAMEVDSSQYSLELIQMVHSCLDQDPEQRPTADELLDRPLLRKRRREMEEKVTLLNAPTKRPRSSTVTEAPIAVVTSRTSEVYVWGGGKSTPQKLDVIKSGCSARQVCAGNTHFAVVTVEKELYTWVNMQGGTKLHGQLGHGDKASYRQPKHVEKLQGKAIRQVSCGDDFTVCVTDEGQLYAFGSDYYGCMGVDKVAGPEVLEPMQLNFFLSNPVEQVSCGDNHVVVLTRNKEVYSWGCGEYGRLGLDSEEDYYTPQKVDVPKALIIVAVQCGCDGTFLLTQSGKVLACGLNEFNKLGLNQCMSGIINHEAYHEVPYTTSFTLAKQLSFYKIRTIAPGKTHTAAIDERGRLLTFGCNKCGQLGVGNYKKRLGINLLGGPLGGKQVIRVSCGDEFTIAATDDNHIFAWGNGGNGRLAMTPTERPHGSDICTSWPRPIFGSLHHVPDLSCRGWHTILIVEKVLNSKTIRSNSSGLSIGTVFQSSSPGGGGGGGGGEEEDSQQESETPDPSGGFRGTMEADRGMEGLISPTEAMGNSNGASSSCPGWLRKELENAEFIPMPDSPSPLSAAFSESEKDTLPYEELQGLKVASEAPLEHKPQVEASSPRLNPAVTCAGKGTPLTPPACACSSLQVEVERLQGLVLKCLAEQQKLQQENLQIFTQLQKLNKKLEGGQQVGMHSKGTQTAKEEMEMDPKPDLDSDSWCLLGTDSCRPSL
Procedure, shortened: as §1

[11] = molecular target: T6, CDK9/T1 (Homo sapiens, UniProt P50750)
T6 construct: AssayQuant Technologies, Inc. (ran the panel)
Procedure, shortened: as §1

Sequence of FER (P16591 whole entry, species assumed): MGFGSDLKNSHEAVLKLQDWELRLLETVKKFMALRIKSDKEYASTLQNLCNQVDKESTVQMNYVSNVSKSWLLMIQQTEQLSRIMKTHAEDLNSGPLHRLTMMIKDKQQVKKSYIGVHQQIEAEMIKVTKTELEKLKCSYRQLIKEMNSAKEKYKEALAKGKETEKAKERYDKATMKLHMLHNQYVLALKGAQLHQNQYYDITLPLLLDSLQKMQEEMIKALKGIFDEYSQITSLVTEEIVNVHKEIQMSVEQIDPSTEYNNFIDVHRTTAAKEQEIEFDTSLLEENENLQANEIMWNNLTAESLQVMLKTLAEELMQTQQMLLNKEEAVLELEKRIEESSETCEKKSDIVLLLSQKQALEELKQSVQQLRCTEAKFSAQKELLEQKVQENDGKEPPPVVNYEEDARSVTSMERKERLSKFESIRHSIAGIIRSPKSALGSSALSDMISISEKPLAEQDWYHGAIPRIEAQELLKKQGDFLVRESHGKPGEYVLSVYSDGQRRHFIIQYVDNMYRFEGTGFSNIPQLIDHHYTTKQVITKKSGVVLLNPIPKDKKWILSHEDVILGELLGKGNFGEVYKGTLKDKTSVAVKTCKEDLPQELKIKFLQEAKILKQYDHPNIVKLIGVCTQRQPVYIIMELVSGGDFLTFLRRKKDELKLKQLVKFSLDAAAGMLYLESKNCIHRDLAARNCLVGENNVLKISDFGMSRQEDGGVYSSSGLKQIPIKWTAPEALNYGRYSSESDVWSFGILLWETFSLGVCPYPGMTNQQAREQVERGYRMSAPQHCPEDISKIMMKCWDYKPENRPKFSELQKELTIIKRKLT
Sequence of PRKCB2/PKCB2 (P05771 1-673 isoform P05771-2): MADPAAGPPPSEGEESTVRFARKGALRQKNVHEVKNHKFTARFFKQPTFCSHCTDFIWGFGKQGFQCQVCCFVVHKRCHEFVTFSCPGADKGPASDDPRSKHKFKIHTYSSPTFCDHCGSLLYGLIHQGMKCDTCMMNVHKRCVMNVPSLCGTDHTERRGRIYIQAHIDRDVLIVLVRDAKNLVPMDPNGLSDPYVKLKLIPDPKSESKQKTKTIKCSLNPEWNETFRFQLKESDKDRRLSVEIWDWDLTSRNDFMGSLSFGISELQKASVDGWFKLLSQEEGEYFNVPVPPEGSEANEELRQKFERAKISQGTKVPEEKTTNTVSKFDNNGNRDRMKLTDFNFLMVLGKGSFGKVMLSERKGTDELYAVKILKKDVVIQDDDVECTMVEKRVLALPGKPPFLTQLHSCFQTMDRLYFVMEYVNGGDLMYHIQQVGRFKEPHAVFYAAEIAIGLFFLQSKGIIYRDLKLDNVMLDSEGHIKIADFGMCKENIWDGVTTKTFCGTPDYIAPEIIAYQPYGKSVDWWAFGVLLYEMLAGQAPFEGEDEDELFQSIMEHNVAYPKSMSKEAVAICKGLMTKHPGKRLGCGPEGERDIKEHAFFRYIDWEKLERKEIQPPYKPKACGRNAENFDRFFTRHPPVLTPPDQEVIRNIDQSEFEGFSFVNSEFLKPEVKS
T4 sequence (O96017 whole entry): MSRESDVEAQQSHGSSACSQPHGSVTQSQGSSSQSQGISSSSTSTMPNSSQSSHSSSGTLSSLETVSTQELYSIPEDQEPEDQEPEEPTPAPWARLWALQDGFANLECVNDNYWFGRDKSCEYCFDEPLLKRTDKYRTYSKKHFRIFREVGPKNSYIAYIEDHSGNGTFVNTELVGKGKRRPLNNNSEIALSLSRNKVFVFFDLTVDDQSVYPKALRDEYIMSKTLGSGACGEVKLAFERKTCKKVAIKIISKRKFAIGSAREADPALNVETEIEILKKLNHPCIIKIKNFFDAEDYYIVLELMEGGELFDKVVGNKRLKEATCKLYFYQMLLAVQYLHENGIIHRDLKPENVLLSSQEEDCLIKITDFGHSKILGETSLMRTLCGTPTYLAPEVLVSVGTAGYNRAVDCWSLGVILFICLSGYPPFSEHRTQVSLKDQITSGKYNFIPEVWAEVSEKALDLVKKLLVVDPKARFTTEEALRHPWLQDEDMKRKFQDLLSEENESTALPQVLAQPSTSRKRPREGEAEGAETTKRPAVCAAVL
Sequence of PIM2 (Q9P1W9 whole entry, species assumed): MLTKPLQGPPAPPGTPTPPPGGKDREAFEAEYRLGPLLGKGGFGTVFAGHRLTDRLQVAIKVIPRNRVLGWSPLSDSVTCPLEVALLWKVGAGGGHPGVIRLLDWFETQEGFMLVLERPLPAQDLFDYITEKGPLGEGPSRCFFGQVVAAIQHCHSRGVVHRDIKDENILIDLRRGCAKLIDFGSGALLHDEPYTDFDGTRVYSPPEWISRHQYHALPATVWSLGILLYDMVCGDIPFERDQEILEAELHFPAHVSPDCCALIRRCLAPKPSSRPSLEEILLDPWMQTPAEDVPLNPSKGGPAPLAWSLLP
T2 sequence (Q9HC98 whole entry, species assumed): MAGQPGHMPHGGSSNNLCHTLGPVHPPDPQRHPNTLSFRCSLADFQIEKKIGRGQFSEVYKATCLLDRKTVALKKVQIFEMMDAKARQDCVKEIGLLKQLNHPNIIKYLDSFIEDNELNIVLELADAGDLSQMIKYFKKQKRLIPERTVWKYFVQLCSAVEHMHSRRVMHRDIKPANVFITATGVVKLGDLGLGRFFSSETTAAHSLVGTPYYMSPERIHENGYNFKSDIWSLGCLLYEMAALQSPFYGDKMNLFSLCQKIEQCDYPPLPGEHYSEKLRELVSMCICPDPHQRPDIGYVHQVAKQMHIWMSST
T6 sequence (P50750 whole entry, species assumed): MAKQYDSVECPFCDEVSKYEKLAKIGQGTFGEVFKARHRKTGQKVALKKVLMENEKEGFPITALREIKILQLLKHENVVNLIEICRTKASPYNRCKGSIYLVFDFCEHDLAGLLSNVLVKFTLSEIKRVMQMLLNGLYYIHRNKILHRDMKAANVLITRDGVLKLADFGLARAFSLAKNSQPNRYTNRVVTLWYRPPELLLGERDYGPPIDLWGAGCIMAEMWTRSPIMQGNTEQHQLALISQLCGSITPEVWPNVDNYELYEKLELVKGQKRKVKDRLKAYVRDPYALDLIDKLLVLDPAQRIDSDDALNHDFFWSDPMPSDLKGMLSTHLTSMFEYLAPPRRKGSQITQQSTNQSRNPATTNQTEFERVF
T6 sequence (O60563 whole entry partner, species assumed): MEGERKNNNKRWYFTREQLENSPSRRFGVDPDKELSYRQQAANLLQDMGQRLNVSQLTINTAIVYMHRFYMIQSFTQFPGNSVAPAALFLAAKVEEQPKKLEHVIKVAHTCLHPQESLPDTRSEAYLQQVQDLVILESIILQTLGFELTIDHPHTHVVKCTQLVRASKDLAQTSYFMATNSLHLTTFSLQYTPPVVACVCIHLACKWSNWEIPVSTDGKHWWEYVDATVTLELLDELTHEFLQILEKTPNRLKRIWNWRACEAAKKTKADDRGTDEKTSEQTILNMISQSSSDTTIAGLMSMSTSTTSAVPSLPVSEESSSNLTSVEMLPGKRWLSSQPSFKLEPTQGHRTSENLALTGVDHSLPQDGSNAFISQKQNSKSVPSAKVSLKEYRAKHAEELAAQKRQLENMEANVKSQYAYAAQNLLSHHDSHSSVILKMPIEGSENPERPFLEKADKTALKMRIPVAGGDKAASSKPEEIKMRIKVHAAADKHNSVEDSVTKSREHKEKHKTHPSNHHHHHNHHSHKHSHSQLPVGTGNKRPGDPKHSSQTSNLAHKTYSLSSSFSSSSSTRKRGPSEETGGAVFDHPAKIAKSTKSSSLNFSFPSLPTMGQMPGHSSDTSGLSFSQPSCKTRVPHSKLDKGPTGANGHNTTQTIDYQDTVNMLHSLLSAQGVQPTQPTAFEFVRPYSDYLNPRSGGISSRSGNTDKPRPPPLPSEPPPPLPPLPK
Sequence of EPHA7 (Q15375 28-998, species assumed): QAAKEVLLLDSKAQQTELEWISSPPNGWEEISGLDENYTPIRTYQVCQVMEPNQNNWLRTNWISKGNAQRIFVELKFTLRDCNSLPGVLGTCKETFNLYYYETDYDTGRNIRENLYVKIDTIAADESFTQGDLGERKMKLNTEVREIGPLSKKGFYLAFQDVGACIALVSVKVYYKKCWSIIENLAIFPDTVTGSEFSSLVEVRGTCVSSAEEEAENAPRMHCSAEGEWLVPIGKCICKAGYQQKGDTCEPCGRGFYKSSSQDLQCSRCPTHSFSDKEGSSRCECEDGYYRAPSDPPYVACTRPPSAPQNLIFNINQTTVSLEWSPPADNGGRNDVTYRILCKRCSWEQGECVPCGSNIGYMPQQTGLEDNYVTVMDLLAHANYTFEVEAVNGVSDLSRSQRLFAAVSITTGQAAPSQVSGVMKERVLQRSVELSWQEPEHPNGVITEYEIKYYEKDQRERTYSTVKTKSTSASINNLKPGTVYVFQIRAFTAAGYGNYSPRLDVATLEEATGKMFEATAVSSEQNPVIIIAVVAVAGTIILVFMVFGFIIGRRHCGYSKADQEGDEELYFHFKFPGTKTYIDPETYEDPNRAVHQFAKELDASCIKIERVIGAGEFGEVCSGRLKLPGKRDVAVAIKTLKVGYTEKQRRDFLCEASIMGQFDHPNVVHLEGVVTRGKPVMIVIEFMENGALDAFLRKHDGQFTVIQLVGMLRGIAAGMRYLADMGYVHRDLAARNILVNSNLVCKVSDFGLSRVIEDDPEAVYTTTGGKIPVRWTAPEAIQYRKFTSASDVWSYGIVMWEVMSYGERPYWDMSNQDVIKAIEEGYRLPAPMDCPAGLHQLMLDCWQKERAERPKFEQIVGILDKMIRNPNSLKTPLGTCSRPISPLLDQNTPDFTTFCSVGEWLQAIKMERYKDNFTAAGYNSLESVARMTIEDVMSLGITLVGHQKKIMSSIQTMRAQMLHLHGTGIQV

| Structure (SMILES) | inhibition at 1 µM [1] [%] | inhibition at 1 µM [2] [%] | inhibition at 1 µM [3] [%] | inhibition at 1 µM [4] [%] | inhibition at 1 µM [5] [%] | inhibition at 1 µM [6] [%] | inhibition at 1 µM [7] [%] | inhibition at 1 µM [8] [%] | inhibition at 1 µM [9] [%] | inhibition at 1 µM [10] [%] | inhibition at 1 µM [11] [%] |
| --- | --- | --- | --- | --- | --- | --- | --- | --- | --- | --- | --- |
| C=CC(=O)N1CCCC(c2c(F)cc(C(N)=O)c3[nH]c4c(c23)CCCCC4)C1 (single isomer, unassigned) [Compound 5-6] | -6.1 | 2.5 | -32.3 | 32 | -13.5 | -0.1 | 4 | -40.6 | 0.6 | -9.3 | -11 |
| C=CC(=O)N1CCC[C@@H](c2c(F)cc(C(N)=O)c3[nH]c4c(c23)CC2(CC4)CC2)C1 [Compound 6-2, (S)-5-(1-acryloylpiperidin-3-yl)-6-fluoro-1,2,4,9-tetrahydrospiro[carbazole-3,1′-cyclopropane]-8-carboxamide] | -23.2 | 10.9 | -9.4 | 2.1 | -5.8 | 5.1 | -36.4 | 35 | -14.1 | 18 | -9.9 |
| C=CC(=O)N1CCC[C@@H](c2c(F)cc(C(N)=O)c3[nH]c4c(c23)CCC4)C1 [Compound 10-2, (S)-8-(1-acryloylpiperidin-3-yl)-7-fluoro-1,2,3,4-tetrahydrocyclo-penta[b]indole-5-carboxamide] | -21.2 | 3.3 | -28.2 | 29.3 | -13.6 | -4.7 | -14.5 | 14.6 | -9.2 | 2.4 | -26.7 |
